# Biological target: T1, human Kv3.3 channels (hKv3.3) (Homo sapiens, UniProt Q14003)
# T1 construct: expressed in transfected cells
# T1 sequence (Q14003 1-757): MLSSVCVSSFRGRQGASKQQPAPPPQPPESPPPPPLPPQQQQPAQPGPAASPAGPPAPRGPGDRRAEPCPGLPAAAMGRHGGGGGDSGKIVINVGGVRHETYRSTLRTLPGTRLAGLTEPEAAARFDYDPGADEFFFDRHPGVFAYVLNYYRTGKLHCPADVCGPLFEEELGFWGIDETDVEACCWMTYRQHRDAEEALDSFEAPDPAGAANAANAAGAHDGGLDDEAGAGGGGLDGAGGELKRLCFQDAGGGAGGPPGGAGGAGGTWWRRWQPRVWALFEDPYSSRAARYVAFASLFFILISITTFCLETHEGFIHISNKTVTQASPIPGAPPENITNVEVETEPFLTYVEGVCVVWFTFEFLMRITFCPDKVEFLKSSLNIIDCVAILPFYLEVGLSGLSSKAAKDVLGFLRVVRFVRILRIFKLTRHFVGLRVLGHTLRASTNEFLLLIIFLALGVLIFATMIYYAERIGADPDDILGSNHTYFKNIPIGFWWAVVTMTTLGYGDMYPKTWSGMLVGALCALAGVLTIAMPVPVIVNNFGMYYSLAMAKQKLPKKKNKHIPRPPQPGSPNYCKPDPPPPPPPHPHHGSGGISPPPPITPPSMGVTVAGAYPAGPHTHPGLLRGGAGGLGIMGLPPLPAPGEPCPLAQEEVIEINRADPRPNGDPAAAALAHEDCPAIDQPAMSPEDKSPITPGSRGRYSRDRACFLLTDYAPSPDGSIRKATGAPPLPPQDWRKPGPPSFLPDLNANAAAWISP
# Experiment: hKv3.3 recombinant cell assay, IonWorks Quattro planar array electrophysiology
# Format: cell-based
# Conditions: 12.5 micromolar; mean, n=2
# Excerpt: The ability of the compounds of the invention to modulate the voltage-gated potassium channel subtypes Kv3.2/3.1 may be determined using the following assay. The assay may also be used to determine the ability of compounds of the invention to modulate the voltage-gated potassium channel Kv3.3. Analogous methods may be used to investigate the ability of the compounds of the invention to modulate other channel subtypes.
# To assess compound effects on human Kv3.3 channels (hKv3.3), a stable cell line expressing human Kv3.3 channels was created by transfecting Chinese Hamster Ovary (CHO)—K1 cells with a pBacMire_KCNC-3 vector. Cells were cultured in DMEM/F12 (Gibco) supplemented with 10% Foetal Bovine Serum (Gibco), 1× non-essential amino acids (Invitrogen) and geneticin (G418) 400 microg/mL. Cells were grown and maintained at 37° C. in a humidified environment containing 5% CO2 in air. […]
# Experiments were conducted at room temperature using IonWorks Quattro™ planar array electrophysiology technology (Molecular Devices Corp.) with PatchPlate™ PPC. […] Planar electrode hole resistances (Rp) were determined by applying a 10 mV voltage step across each well. […] Test pulses protocol may be performed in the absence (pre-read) and presence (post-read) of the test compound. Pre- and post-reads may be separated by the compound addition followed by a 3 minute incubation. […]
smiles,measurement,value
"Cc1ccc(Oc2ccc(-n3c(C)n[nH]c3=O)cn2)c2c1OCC21CC1 [Example 14, 5-methyl-4-{6-[(7-methylspiro[1-benzofuran-3,1′-cyclopropan]-4-yl)oxy]pyridin-3-yl}-2,4-dihydro-3H-1,2,4-triazol-3-one]",increase in human Kv3.3 peak current at 0 mV,75%

# From US11180461B2, “Triazoles as Kv3 inhibitors” (AUTIFONY THERAPEUTICS LIMITED, priority 2012, dated 2021)
